Measured values reported in the supplement of paper PMC4862054.

Each molecule was assayed on CAL-85-1 (assay: normalised response (% of control), CellTox Green; higher = less cell death (100 = DMSO, 0 = benzethonium chloride kill control)). Conditions: incubation time: 72 h.
Outline: (§1)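 Breast cancer cell lines in 20 µl suspension were added to 384-well plates containing compound at 5 concentrations, spaced in 10-fold steps across a 10,000-fold range chosen for each compound, and incubated for 72 h. CellTox Green fluorescence was read at 485/520 nm, followed by CellTiter-Glo luminescence after 10 min at room temperature. Signals on each plate were normalised so that 0.1 % DMSO equals 100 and a positive kill control equals 0. Every value in the table is the normalised signal at one concentration of the series.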

| SMILES | normalised response [%] |
| --- | --- |
| C[C@H]1C[C@@H]2[C@H]([C@@H](O)C[C@@]3(C)[C@H]2CC[C@]3(O)C(=O)CO)[C@@]2(C)C=CC(=O)C=C12 [Methylprednisolone] (10000 nM) | 73.1 |
| CCN(CC)CCCC(C)Nc1c2ccc(Cl)cc2nc2ccc(OC)cc12 (stereo not drawn) [Mepacrine] (50000 nM) | 101 |
| Nc1nc(F)nc2c1ncn2[C@@H]1O[C@H](CO)[C@@H](O)[C@@H]1O [Fludarabine] (10000 nM) | 68.5 |
| CCCS(=O)(=O)Nc1ccc(F)c(C(=O)c2c[nH]c3ncc(-c4ccc(Cl)cc4)cc23)c1F [Vemurafenib] (10000 nM) | 109 |
| O=C(O)C1(C(=O)O)CCC1.[NH2-].[NH2-].[Pt+2] [Carboplatin] (10000 nM) | 99.3 |

These molecules were tested on MCF-10A in the same assay as above. Conditions: incubation time: 72 h.
Outline: as §1

| SMILES | normalised response [%] |
| --- | --- |
| COc1cc2c(Oc3ccc4[nH]c(C)cc4c3F)ncnc2cc1OCCCN1CCCC1 [Cediranib] (1000 nM) | 91.5 |
| Nc1nc2[nH]cc(CCc3ccc(C(=O)N[C@@H](CCC(=O)O)C(=O)O)cc3)c2c(=O)[nH]1 [Pemetrexed] (10000 nM) | 72 |
| C[C@H]1C[C@@H]2[C@H]([C@@H](O)C[C@@]3(C)[C@H]2CC[C@]3(O)C(=O)CO)[C@@]2(C)C=CC(=O)C=C12 [Methylprednisolone] (10000 nM) | 99.1 |
| CNC(=O)c1cc(Oc2ccc(NC(=O)Nc3cc(C(C)(C)C)nn3-c3ccc4ncccc4c3)c(F)c2)ccn1 [Rebastinib] (1000 nM) | 101 |
| CCN(CC)CCCC(C)Nc1c2ccc(Cl)cc2nc2ccc(OC)cc12 (stereo not drawn) [Mepacrine] (50000 nM) | 103 |
| Nc1nc(F)nc2c1ncn2[C@@H]1O[C@H](CO)[C@@H](O)[C@@H]1O [Fludarabine] (10000 nM) | 101 |
| O=C(O)C1(C(=O)O)CCC1.[NH2-].[NH2-].[Pt+2] [Carboplatin] (10000 nM) | 117 |

These molecules were tested on MDA-MB-468 in the same assay as above. Conditions: incubation time: 72 h.
Outline: as §1

| SMILES | normalised response [%] |
| --- | --- |
| COc1cc2c(Oc3ccc4[nH]c(C)cc4c3F)ncnc2cc1OCCCN1CCCC1 [Cediranib] (1000 nM) | 153 |
| C[C@H]1C[C@@H]2[C@H]([C@@H](O)C[C@@]3(C)[C@H]2CC[C@]3(O)C(=O)CO)[C@@]2(C)C=CC(=O)C=C12 [Methylprednisolone] (10000 nM) | 151 |
| CNC(=O)c1cc(Oc2ccc(NC(=O)Nc3cc(C(C)(C)C)nn3-c3ccc4ncccc4c3)c(F)c2)ccn1 [Rebastinib] (1000 nM) | 64 |
| CCN(CC)CCCC(C)Nc1c2ccc(Cl)cc2nc2ccc(OC)cc12 (stereo not drawn) [Mepacrine] (50000 nM) | 89.7 |
| Nc1nc(F)nc2c1ncn2[C@@H]1O[C@H](CO)[C@@H](O)[C@@H]1O [Fludarabine] (10000 nM) | 119 |
| CCCS(=O)(=O)Nc1ccc(F)c(C(=O)c2c[nH]c3ncc(-c4ccc(Cl)cc4)cc23)c1F [Vemurafenib] (10000 nM) | 148 |
| O=C(O)C1(C(=O)O)CCC1.[NH2-].[NH2-].[Pt+2] [Carboplatin] (10000 nM) | 108 |

These molecules were tested on HCC1143 in the same assay as above. Conditions: incubation time: 72 h.
Outline: as §1

| SMILES | normalised response [%] |
| --- | --- |
| COc1cc2c(Oc3ccc4[nH]c(C)cc4c3F)ncnc2cc1OCCCN1CCCC1 [Cediranib] (1000 nM) | 123 |
| Nc1nc2[nH]cc(CCc3ccc(C(=O)N[C@@H](CCC(=O)O)C(=O)O)cc3)c2c(=O)[nH]1 [Pemetrexed] (10000 nM) | 119 |
| C[C@H]1C[C@@H]2[C@H]([C@@H](O)C[C@@]3(C)[C@H]2CC[C@]3(O)C(=O)CO)[C@@]2(C)C=CC(=O)C=C12 [Methylprednisolone] (10000 nM) | 121 |
| CNC(=O)c1cc(Oc2ccc(NC(=O)Nc3cc(C(C)(C)C)nn3-c3ccc4ncccc4c3)c(F)c2)ccn1 [Rebastinib] (1000 nM) | 115 |
| CCN(CC)CCCC(C)Nc1c2ccc(Cl)cc2nc2ccc(OC)cc12 (stereo not drawn) [Mepacrine] (50000 nM) | 104 |
| Nc1nc(F)nc2c1ncn2[C@@H]1O[C@H](CO)[C@@H](O)[C@@H]1O [Fludarabine] (10000 nM) | 116 |
| CCCS(=O)(=O)Nc1ccc(F)c(C(=O)c2c[nH]c3ncc(-c4ccc(Cl)cc4)cc23)c1F [Vemurafenib] (10000 nM) | 100 |

These molecules were tested on MFM-223 in the same assay as above. Conditions: incubation time: 72 h.
Outline: as §1

| SMILES | normalised response [%] |
| --- | --- |
| COc1cc2c(Oc3ccc4[nH]c(C)cc4c3F)ncnc2cc1OCCCN1CCCC1 [Cediranib] (1000 nM) | 91.4 |
| Nc1nc2[nH]cc(CCc3ccc(C(=O)N[C@@H](CCC(=O)O)C(=O)O)cc3)c2c(=O)[nH]1 [Pemetrexed] (10000 nM) | 98.8 |
| C[C@H]1C[C@@H]2[C@H]([C@@H](O)C[C@@]3(C)[C@H]2CC[C@]3(O)C(=O)CO)[C@@]2(C)C=CC(=O)C=C12 [Methylprednisolone] (10000 nM) | 93.2 |
| CNC(=O)c1cc(Oc2ccc(NC(=O)Nc3cc(C(C)(C)C)nn3-c3ccc4ncccc4c3)c(F)c2)ccn1 [Rebastinib] (1000 nM) | 101 |
| CCN(CC)CCCC(C)Nc1c2ccc(Cl)cc2nc2ccc(OC)cc12 (stereo not drawn) [Mepacrine] (50000 nM) | 84.8 |
| CCCS(=O)(=O)Nc1ccc(F)c(C(=O)c2c[nH]c3ncc(-c4ccc(Cl)cc4)cc23)c1F [Vemurafenib] (10000 nM) | 97.7 |
| O=C(O)C1(C(=O)O)CCC1.[NH2-].[NH2-].[Pt+2] [Carboplatin] (10000 nM) | 94 |

The molecules below were run on BT-474 in the same assay as above. Conditions: incubation time: 72 h.
Outline: as §1

| SMILES | normalised response [%] |
| --- | --- |
| COc1cc2c(Oc3ccc4[nH]c(C)cc4c3F)ncnc2cc1OCCCN1CCCC1 [Cediranib] (1000 nM) | 95.7 |
| Nc1nc2[nH]cc(CCc3ccc(C(=O)N[C@@H](CCC(=O)O)C(=O)O)cc3)c2c(=O)[nH]1 [Pemetrexed] (10000 nM) | 77.3 |
| C[C@H]1C[C@@H]2[C@H]([C@@H](O)C[C@@]3(C)[C@H]2CC[C@]3(O)C(=O)CO)[C@@]2(C)C=CC(=O)C=C12 [Methylprednisolone] (10000 nM) | 99.9 |
| CNC(=O)c1cc(Oc2ccc(NC(=O)Nc3cc(C(C)(C)C)nn3-c3ccc4ncccc4c3)c(F)c2)ccn1 [Rebastinib] (1000 nM) | 89.2 |
| CCN(CC)CCCC(C)Nc1c2ccc(Cl)cc2nc2ccc(OC)cc12 (stereo not drawn) [Mepacrine] (50000 nM) | 104 |
| Nc1nc(F)nc2c1ncn2[C@@H]1O[C@H](CO)[C@@H](O)[C@@H]1O [Fludarabine] (10000 nM) | 97.5 |
| CCCS(=O)(=O)Nc1ccc(F)c(C(=O)c2c[nH]c3ncc(-c4ccc(Cl)cc4)cc23)c1F [Vemurafenib] (10000 nM) | 95.4 |
| O=C(O)C1(C(=O)O)CCC1.[NH2-].[NH2-].[Pt+2] [Carboplatin] (10000 nM) | 106 |

What follows are molecules tested on HCC1599 in the same assay as above. Conditions: incubation time: 72 h.
Outline: as §1

| SMILES | normalised response [%] |
| --- | --- |
| COc1cc2c(Oc3ccc4[nH]c(C)cc4c3F)ncnc2cc1OCCCN1CCCC1 [Cediranib] (1000 nM) | 112 |
| Nc1nc2[nH]cc(CCc3ccc(C(=O)N[C@@H](CCC(=O)O)C(=O)O)cc3)c2c(=O)[nH]1 [Pemetrexed] (10000 nM) | 91.5 |
| C[C@H]1C[C@@H]2[C@H]([C@@H](O)C[C@@]3(C)[C@H]2CC[C@]3(O)C(=O)CO)[C@@]2(C)C=CC(=O)C=C12 [Methylprednisolone] (10000 nM) | 86.3 |
| CNC(=O)c1cc(Oc2ccc(NC(=O)Nc3cc(C(C)(C)C)nn3-c3ccc4ncccc4c3)c(F)c2)ccn1 [Rebastinib] (1000 nM) | 100 |
| CCN(CC)CCCC(C)Nc1c2ccc(Cl)cc2nc2ccc(OC)cc12 (stereo not drawn) [Mepacrine] (50000 nM) | 93.3 |
| Nc1nc(F)nc2c1ncn2[C@@H]1O[C@H](CO)[C@@H](O)[C@@H]1O [Fludarabine] (10000 nM) | 101 |
| CCCS(=O)(=O)Nc1ccc(F)c(C(=O)c2c[nH]c3ncc(-c4ccc(Cl)cc4)cc23)c1F [Vemurafenib] (10000 nM) | 95.8 |
| O=C(O)C1(C(=O)O)CCC1.[NH2-].[NH2-].[Pt+2] [Carboplatin] (10000 nM) | 100 |

What follows are molecules tested on BT-549 in the same assay as above. Conditions: incubation time: 72 h.
Outline: as §1

| SMILES | normalised response [%] |
| --- | --- |
| COc1cc2c(Oc3ccc4[nH]c(C)cc4c3F)ncnc2cc1OCCCN1CCCC1 [Cediranib] (1000 nM) | 97.4 |
| Nc1nc2[nH]cc(CCc3ccc(C(=O)N[C@@H](CCC(=O)O)C(=O)O)cc3)c2c(=O)[nH]1 [Pemetrexed] (10000 nM) | 98.9 |
| C[C@H]1C[C@@H]2[C@H]([C@@H](O)C[C@@]3(C)[C@H]2CC[C@]3(O)C(=O)CO)[C@@]2(C)C=CC(=O)C=C12 [Methylprednisolone] (10000 nM) | 111 |
| CNC(=O)c1cc(Oc2ccc(NC(=O)Nc3cc(C(C)(C)C)nn3-c3ccc4ncccc4c3)c(F)c2)ccn1 [Rebastinib] (1000 nM) | 77.5 |
| CCN(CC)CCCC(C)Nc1c2ccc(Cl)cc2nc2ccc(OC)cc12 (stereo not drawn) [Mepacrine] (50000 nM) | 97.8 |
| Nc1nc(F)nc2c1ncn2[C@@H]1O[C@H](CO)[C@@H](O)[C@@H]1O [Fludarabine] (10000 nM) | 93.6 |
| CCCS(=O)(=O)Nc1ccc(F)c(C(=O)c2c[nH]c3ncc(-c4ccc(Cl)cc4)cc23)c1F [Vemurafenib] (10000 nM) | 89.5 |
| O=C(O)C1(C(=O)O)CCC1.[NH2-].[NH2-].[Pt+2] [Carboplatin] (10000 nM) | 88.1 |

Each molecule was assayed on CAL-120 in the same assay as above. Conditions: incubation time: 72 h.
Outline: as §1

| SMILES | normalised response [%] |
| --- | --- |
| COc1cc2c(Oc3ccc4[nH]c(C)cc4c3F)ncnc2cc1OCCCN1CCCC1 [Cediranib] (1000 nM) | 88.1 |
| Nc1nc2[nH]cc(CCc3ccc(C(=O)N[C@@H](CCC(=O)O)C(=O)O)cc3)c2c(=O)[nH]1 [Pemetrexed] (10000 nM) | 99.8 |
| C[C@H]1C[C@@H]2[C@H]([C@@H](O)C[C@@]3(C)[C@H]2CC[C@]3(O)C(=O)CO)[C@@]2(C)C=CC(=O)C=C12 [Methylprednisolone] (10000 nM) | 102 |
| CNC(=O)c1cc(Oc2ccc(NC(=O)Nc3cc(C(C)(C)C)nn3-c3ccc4ncccc4c3)c(F)c2)ccn1 [Rebastinib] (1000 nM) | 85.9 |
| CCN(CC)CCCC(C)Nc1c2ccc(Cl)cc2nc2ccc(OC)cc12 (stereo not drawn) [Mepacrine] (50000 nM) | 95.8 |
| Nc1nc(F)nc2c1ncn2[C@@H]1O[C@H](CO)[C@@H](O)[C@@H]1O [Fludarabine] (10000 nM) | 96 |
| CCCS(=O)(=O)Nc1ccc(F)c(C(=O)c2c[nH]c3ncc(-c4ccc(Cl)cc4)cc23)c1F [Vemurafenib] (10000 nM) | 97.3 |
| O=C(O)C1(C(=O)O)CCC1.[NH2-].[NH2-].[Pt+2] [Carboplatin] (10000 nM) | 103 |

What follows are molecules tested on Hs578T in the same assay as above. Conditions: incubation time: 72 h.
Outline: as §1

| SMILES | normalised response [%] |
| --- | --- |
| COc1cc2c(Oc3ccc4[nH]c(C)cc4c3F)ncnc2cc1OCCCN1CCCC1 [Cediranib] (1000 nM) | 127 |
| Nc1nc2[nH]cc(CCc3ccc(C(=O)N[C@@H](CCC(=O)O)C(=O)O)cc3)c2c(=O)[nH]1 [Pemetrexed] (10000 nM) | 65.3 |
| C[C@H]1C[C@@H]2[C@H]([C@@H](O)C[C@@]3(C)[C@H]2CC[C@]3(O)C(=O)CO)[C@@]2(C)C=CC(=O)C=C12 [Methylprednisolone] (10000 nM) | 126 |
| CNC(=O)c1cc(Oc2ccc(NC(=O)Nc3cc(C(C)(C)C)nn3-c3ccc4ncccc4c3)c(F)c2)ccn1 [Rebastinib] (1000 nM) | 106 |
| CCN(CC)CCCC(C)Nc1c2ccc(Cl)cc2nc2ccc(OC)cc12 (stereo not drawn) [Mepacrine] (50000 nM) | 58.1 |
| Nc1nc(F)nc2c1ncn2[C@@H]1O[C@H](CO)[C@@H](O)[C@@H]1O [Fludarabine] (10000 nM) | 93.3 |
| CCCS(=O)(=O)Nc1ccc(F)c(C(=O)c2c[nH]c3ncc(-c4ccc(Cl)cc4)cc23)c1F [Vemurafenib] (10000 nM) | 71.5 |
| O=C(O)C1(C(=O)O)CCC1.[NH2-].[NH2-].[Pt+2] [Carboplatin] (10000 nM) | 135 |
